Data reported in publication PMC9447987, “Long-term memory CD8^+ T cells specific for SARS-CoV-2 in individuals who received the BNT162b2 mRNA vaccine” (Nature Communications, 2022).
Like-named read-outs stand apart in the source and are kept apart here.

Experiments:
[1] = tested on: HLA-A*24:02-restricted CD8+ T cells; type: cell-based, human
HLA-A*24:02 = HLA-A*24:02 (Homo sapiens, UniProt P04439, D101N/D140Y/D185E/E176V/E190D/F33S/G103R/G107R/I119L/I121M/I306V/K335N/L105A/L180Q/L300P/N151K/N90K/Q86E/Q94H/R106L/R138H/R89G/T104I/T345S/V100E/W191G/Y123F); experiment: HLA stabilization assay using RMA-S-A2402 cells; type: binding; conditions: RMA-S-A2402 cells, Suppl. Fig. 3b (for Fig. 4a, 4b); peptide(-) 14.8, 26 °C (Maximum) 32.7
[2] = convalescent donor C2, 45.290 weeks since PCR-confirmed diagnosis, […], peptide-pulsed C1R-A2402
[3] = convalescent donor C3, 2.430 weeks since PCR-confirmed diagnosis, […], peptide-pulsed C1R-A2402
[4] = convalescent donor C4, 35.000 weeks since PCR-confirmed diagnosis, […], peptide-pulsed C1R-A2402
[5] = convalescent donor C5, 41.430 weeks since PCR-confirmed diagnosis, […], peptide-pulsed C1R-A2402
[6] = convalescent donor C6, 20.000 weeks since PCR-confirmed diagnosis, […], peptide-pulsed C1R-A2402
[7] = convalescent donor C7, 21.710 weeks since PCR-confirmed diagnosis, […], peptide-pulsed C1R-A2402
[8] = convalescent donor C8, 47.860 weeks since PCR-confirmed diagnosis, […], peptide-pulsed C1R-A2402
[9] = convalescent donor C9, 21.860 weeks since PCR-confirmed diagnosis, […], peptide-pulsed C1R-A2402
[10] = convalescent donor C10, 24.570 weeks since PCR-confirmed diagnosis, […], peptide-pulsed C1R-A2402
[11] = convalescent donor C11, 24.290 weeks since PCR-confirmed diagnosis, […], peptide-pulsed C1R-A2402
[12] = vaccinated donor V1, 19.000 weeks since 2nd dose, […], C1R-A2402 pre-pulsed with 1 μM peptide
[13] = vaccinated donor V2, 9.570 weeks since 2nd dose, […], C1R-A2402 pre-pulsed with 1 μM peptide
[14] = vaccinated donor V3, 8.860 weeks since 2nd dose, […], C1R-A2402 pre-pulsed with 1 μM peptide
[15] = vaccinated donor V4, 10.430 weeks since 2nd dose, […], C1R-A2402 pre-pulsed with 1 μM peptide
[16] = vaccinated donor V5, 10.570 weeks since 2nd dose, […], C1R-A2402 pre-pulsed with 1 μM peptide
[17] = vaccinated donor V6, 9.570 weeks since 2nd dose, […], C1R-A2402 pre-pulsed with 1 μM peptide
[18] = vaccinated donor V7, 10.140 weeks since 2nd dose, […], C1R-A2402 pre-pulsed with 1 μM peptide
[19] = vaccinated donor V8, 9.860 weeks since 2nd dose, […], C1R-A2402 pre-pulsed with 1 μM peptide
[20] = vaccinated donor V9, 20.570 weeks since 2nd dose, […], C1R-A2402 pre-pulsed with 1 μM peptide
[21] = vaccinated donor V10, 2.000 weeks since 2nd dose, […], C1R-A2402 pre-pulsed with 1 μM peptide
[22] = vaccinated donor V11, 1.430 weeks since 2nd dose, […], C1R-A2402 pre-pulsed with 1 μM peptide
[23] = vaccinated donor V12, 1.000 weeks since 2nd dose, […], C1R-A2402 pre-pulsed with 1 μM peptide
[24] = vaccinated donor V13, 9.000 weeks since 2nd dose, […], C1R-A2402 pre-pulsed with 1 μM peptide
[25] = vaccinated donor V14, 2.000 weeks since 2nd dose, […], C1R-A2402 pre-pulsed with 1 μM peptide
[26] = vaccinated donor V15, 6.860 weeks since 2nd dose, […], C1R-A2402 pre-pulsed with 1 μM peptide
[27] = vaccinated donor V16, 8.860 weeks since 2nd dose, […], C1R-A2402 pre-pulsed with 1 μM peptide
[28] = vaccinated donor V17, 4.140 weeks since 2nd dose, […], C1R-A2402 pre-pulsed with 1 μM peptide

Sequence	IFNg-producing cells among CD8 T cells (%) [1, 2]	IFNg-producing cells among CD8 T cells (%) [1, 3]	IFNg-producing cells among CD8 T cells (%) [1, 4]	IFNg-producing cells among CD8 T cells (%) [1, 5]	IFNg-producing cells among CD8 T cells (%) [1, 6]	IFNg-producing cells among CD8 T cells (%) [1, 7]	IFNg-producing cells among CD8 T cells (%) [1, 8]	IFNg-producing cells among CD8 T cells (%) [1, 9]	IFNg-producing cells among CD8 T cells (%) [1, 10]	IFNg-producing cells among CD8 T cells (%) [1, 11]	IFNg-producing cells among CD8 T cells (%) [1, 12]	IFNg-producing cells among CD8 T cells (%) [1, 13]	IFNg-producing cells among CD8 T cells (%) [1, 14]	IFNg-producing cells among CD8 T cells (%) [1, 15]	IFNg-producing cells among CD8 T cells (%) [1, 16]	IFNg-producing cells among CD8 T cells (%) [1, 17]	IFNg-producing cells among CD8 T cells (%) [1, 18]	IFNg-producing cells among CD8 T cells (%) [1, 19]	IFNg-producing cells among CD8 T cells (%) [1, 20]	IFNg-producing cells among CD8 T cells (%) [1, 21]	further results
AYSNNSIAI [S-AI9]	0.000%	0.037%	0.000%	0.000%	0.000%	0.180%	0.160%	0.510%	0.000%	0.000%	0.918%	0%	0%	0%	0.54%	0.014%	0%	0%	0.488%	0%	IFNg-producing cells among CD8 T cells (%) [1, 22]: 0.134%; IFNg-producing cells among CD8 T cells (%) [1, 23]: 0%; IFNg-producing cells among CD8 T cells (%) [1, 24]: 0.166%; IFNg-producing cells among CD8 T cells (%) [1, 25]: 0%; IFNg-producing cells among CD8 T cells (%) [1, 26]: 0%; IFNg-producing cells among CD8 T cells (%) [1, 27]: 0%; IFNg-producing cells among CD8 T cells (%) [1, 28]: 0%; MFI, HLA-A2402 (APC), representative staining (HLA-A*24:02): 36.2
EYVSQPFLM [S-EM9]	0.455%	0.097%	0.355%	0.063%	0.000%	0.160%	0.480%	0.000%	0.650%	0.000%	0.75%	0.88%	0.063%	0%	0.271%	0.032%	0%	0%	0%	0.23%	IFNg-producing cells among CD8 T cells (%) [1, 22]: 0.827%; IFNg-producing cells among CD8 T cells (%) [1, 23]: 0%; IFNg-producing cells among CD8 T cells (%) [1, 24]: 0.062%; IFNg-producing cells among CD8 T cells (%) [1, 25]: 0%; IFNg-producing cells among CD8 T cells (%) [1, 26]: 0%; IFNg-producing cells among CD8 T cells (%) [1, 27]: 0.187%; IFNg-producing cells among CD8 T cells (%) [1, 28]: 0%; MFI, HLA-A2402 (APC), representative staining (HLA-A*24:02): 38.7
GYLQPRTFLL [S-GL10]	0.450%	0.140%	1.440%	0.000%	0.260%	0.000%	0.120%	0.130%	0.000%	0.000%	0%	0%	0.487%	0.245%	0.041%	0%	0%	0.018%	0.481%	0.057%	Freq of responder (%) ([1]; of 17 vaccinated HLA-A*24:02+ individuals (Fig. 4b)): 5.9%; Resp: number of responders (individuals with epitope-specific CD8+ T cells) ([1]; of 17 vaccinated HLA-A*24:02+ individuals, […], 1 μM peptide): one; IFNg-producing cells among CD8 T cells (%) [1, 22]: 0.244%; IFNg-producing cells among CD8 T cells (%) [1, 23]: 1.194%; IFNg-producing cells among CD8 T cells (%) [1, 24]: 0%; IFNg-producing cells among CD8 T cells (%) [1, 25]: 0.774%; IFNg-producing cells among CD8 T cells (%) [1, 26]: 0.234%; IFNg-producing cells among CD8 T cells (%) [1, 27]: 0%; IFNg-producing cells among CD8 T cells (%) [1, 28]: 0%; MFI, HLA-A2402 (APC), representative staining (HLA-A*24:02): 15.2
IYQTSNFRV [S-IV9]	0.000%	0.090%	0.000%	0.000%	0.340%	0.260%	0.060%	0.000%	0.160%	0.000%	0%	0.595%	0.717%	0%	0%	0.265%	0%	0%	0%	0%	IFNg-producing cells among CD8 T cells (%) [1, 22]: 0.241%; IFNg-producing cells among CD8 T cells (%) [1, 23]: 0%; IFNg-producing cells among CD8 T cells (%) [1, 24]: 0%; IFNg-producing cells among CD8 T cells (%) [1, 25]: 0%; IFNg-producing cells among CD8 T cells (%) [1, 26]: 0.005%; IFNg-producing cells among CD8 T cells (%) [1, 27]: 0.261%; IFNg-producing cells among CD8 T cells (%) [1, 28]: 0%; MFI, HLA-A2402 (APC), representative staining (HLA-A*24:02): 33.2
